target: T1, RORγ (Homo sapiens, UniProt P51449); test: RORγ GAL4 reporter gene assay (luciferase readout); type: cell-based; conditions: inhibition of RORγ (GAL4-RORγ-LBD) in 293FT cells, luciferase signal; read-out: mean pIC50 (converted)
T1 construct: expressed in transfected cells; host or cells: 293FT cells (Invitrogen), expression vector pFN26A (Promega)
T1 sequence (P51449 269-508 limits assumed): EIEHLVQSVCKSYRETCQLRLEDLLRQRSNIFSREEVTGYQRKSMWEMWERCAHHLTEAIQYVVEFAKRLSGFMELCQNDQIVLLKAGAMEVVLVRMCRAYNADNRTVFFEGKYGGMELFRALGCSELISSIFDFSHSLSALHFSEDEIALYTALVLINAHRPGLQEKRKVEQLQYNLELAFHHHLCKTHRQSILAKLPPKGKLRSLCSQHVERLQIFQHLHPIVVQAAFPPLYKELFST
Protocol: Example inhibitors 1-38 were tested for their ability to inhibit RORγ activity in a RORγ GAL4 reporter gene assay. The assay procedure and results are described below.
A GAL4 one-hybrid reporter system employing luciferase readout was established to determine inhibition of RORγ in 293FT cells. The RORγ ligand-binding domain (LBD) was fused to the yeast GAL4 DNA binding domain (DBD) and placed under the control of the human cytomegalovirus (CMV) immediate early promoter, using expression vector pFN26A (Promega) and standard recombinant DNA cloning methods. To serve as a control in the assay, a similar vector was generated in which the GAL4-DBD was fused to Herpes simplex virus protein 16 (VP16), a constitutive transcriptional activator.
To monitor the inhibitory effect of compounds on RORγ, a transcriptional reporter construct was used. The pGL4.35 vector (Promega) contains nine copies of the GAL4 Upstream Activator Sequence (UAS). This sequence drives the transcription of the luciferase reporter gene luc2P in response to binding of a fusion protein containing the GAL4 DNA binding domain, as for example expressed by the GAL4-RORγ-LBD and GAL4-VP16 expression vectors described above. To allow a GAL4 fusion protein to drive the expression of the luciferase reporter, the pGL4.35 expression vector and the appropriate GAL4 fusion protein expression vector were bulk transfected in the 293FT cells using standard transfection techniques.
The day after transfection, cells were plated into 96 well plates, test compound was added and the plates were incubated overnight. Subsequently, the firefly luciferase activity was quantified using luciferase detection reagent and luminescence readout.
293FT cells (Invitrogen) were transfected with a GAL4 fusion protein expression vector (as described above) and the transcriptional reporter construct (pGL4.35, Promega). 60 μL of TransIT-293 transfection reagent (Mirus Bio) was added drop wise to 1500 μl Opti-MEM I Reduced Serum Medium (Invitrogen) and incubated at RT (RT) for 5 to 20 minutes. 1500 μL of this reagent mixture was added to 5 μg of GAL4 fusion protein expression vector and 5 μg of the transcriptional reporter construct, and incubated at RT for 20 minutes.
To harvest 293FT cells from a T75 flask, first the culture medium was taken off the cells. Subsequently, the cells were washed with Phosphate Buffered Saline (PBS) (Lonza), after which the PBS was removed. To dissociate the cells, 1 ml of TrypLE Express (Invitrogen) was added to the flask, followed by incubation at RT until the cells visually started to detach. Cells were collected in 5 mL of assay medium (DMEM culture medium (Lonza), 10% dialyzed FBS (Invitrogen) and Pen/Strep (Lonza)) to achieve a single cell suspension. 10×10^6 cells were spun down and re-suspended in 10 mL of assay medium. Subsequently, the cell suspension was added to the transfection mix tube, and then transferred as a whole to a T75 flask (Greiner), followed by overnight (16-24 hours) incubation at 37° C. and 5% CO2.
For compound screening, the cells were harvested (as described above) and counted. 13×10^6 cells were spun down, the supernatant was aspirated and the cells were re-suspended in 17.3 mL of assay medium obtaining a cell suspension of 0.75×10^6 cells/mL. 80 μL of cell suspension (60,000 cells) was plated per well into a white, flat bottom, tissue culture treated, 96 well screening plates (Greiner).
Test compounds were diluted, starting from a 10 mM dimethylsulfoxide (DMSO) stock solution, to serial dilutions in DMSO at 500× the final test concentration. Subsequently, these solutions were diluted to 5× the final test concentration in two 10-fold-dilution steps in assay medium. The final DMSO concentration of the 5× test compound solution was 1%. 20 μL of the 5× test compound solution was added to each test well of the 96 well plate previously plated with 80 μl cell suspension, resulting in the final test concentration with 0.2% DMSO. […]

Row | SMILES | IC50 [µM]
1 | CCC(O)(c1ccc(C(=O)NCc2ccc(S(=O)(=O)CC3CC3)cc2)cc1)C(F)(F)F (racemic) [(−)-1, (−)-N-[[4-(cyclopropylmethylsulfonyl)phenyl]methyl]-4-[1-hydroxy-1-(trifluoromethyl)propyl]benzamide] | ≤ 1
2 | CCC(O)(c1ccc(C(=O)NCc2ccc(S(=O)(=O)CC3CC3)cc2)cc1)C(F)(F)F (racemic) [Example 1, N-[[4-(cyclopropylmethylsulfonyl)phenyl]methyl]-4-[1-hydroxy-1-(trifluoromethyl)propyl]benzamide] | ≤ 0.1
3 | CC(O)(c1ccc(C(=O)NCc2ccc(S(=O)(=O)CC3CC3)cc2)cc1)C(F)(F)F (stereo not drawn) [Example 2, N-[[4-(cyclopropylmethylsulfonyl)phenyl]methyl]-4-(2,2,2-trifluoro-1-hydroxy-1-methyl-ethyl)benzamide] | ≤ 1
4 | CC(C)(O)c1ccc(C(=O)NCc2ccc(S(=O)(=O)CC3CC3)cc2)cc1 [Example 3, N-[[4-(cyclopropylmethylsulfonyl)phenyl]methyl]-4-(1-hydroxy-1-methyl-ethyl)benzamide] | > 10
5 | CCCC(O)(c1ccc(C(=O)NCc2ccc(S(=O)(=O)CC3CC3)cc2)cc1)C(F)(F)F (stereo not drawn) [Example 6, N-[[4-(cyclopropylmethylsulfonyl)phenyl]methyl]-4-[1-hydroxy-1-(trifluoromethyl)butyl]benzamide] | ≤ 0.1
6 | CCCCC(O)(c1ccc(C(=O)NCc2ccc(S(=O)(=O)CC3CC3)cc2)cc1)C(F)(F)F (stereo not drawn) [Example 7, N-[[4-(cyclopropylmethylsulfonyl)phenyl]methyl]-4-[1-hydroxy-1-(trifluoromethyl)pentyl]benzamide] | ≤ 0.1
7 | CC(C)(C)CC(O)(c1ccc(C(=O)NCc2ccc(S(=O)(=O)CC3CC3)cc2)cc1)C(F)(F)F (stereo not drawn) [Example 9, N-[[4-(cyclopropylmethylsulfonyl)phenyl]methyl]-4-[1-hydroxy-3,3-dimethyl-1-(trifluoromethyl)butyl]benzamide] | ≤ 0.1
8 | O=C(NCc1ccc(S(=O)(=O)CC2CC2)cc1)c1ccc(C(O)(C2CCCC2)C(F)(F)F)cc1 (stereo not drawn) [Example 12, 4-(1-cyclopentyl-2,2,2-trifluoro-1-hydroxy-ethyl)-N-[[4-(cyclopropylmethylsulfonyl)phenyl]methyl]benzamide] | ≤ 0.1
9 | O=C(NCc1ccc(S(=O)(=O)CC2CC2)cc1)c1ccc(C(O)(c2ccccc2)C(F)(F)F)cc1 (stereo not drawn) [Example 13, N-[[4-(cyclopropylmethylsulfonyl)phenyl]methyl]-4-(2,2,2-trifluoro-1-hydroxy-1-phenyl-ethyl)benzamide] | ≤ 1
10 | O=C(NCc1ccc(S(=O)(=O)CC2CC2)cc1)c1ccc(C(O)(Cc2ccccc2)C(F)(F)F)cc1 (stereo not drawn) [Example 14, 4-(1-benzyl-2,2,2-trifluoro-1-hydroxy-ethyl)-N-[[4-(cyclopropylmethylsulfonyl)phenyl]methyl]benzamide] | ≤ 0.1
11 | Cc1cc(C(=O)NCc2ccc(S(=O)(=O)CC3CC3)cc2)ccc1C(O)(C(F)(F)F)C(F)(F)F [Example 15, N-[[4-(cyclopropylmethylsulfonyl)phenyl]methyl]-3-methyl-4-[2,2,2-trifluoro-1-hydroxy-1-(trifluoromethyl)ethyl]benzamide] | ≤ 0.1
12 | CCS(=O)(=O)c1ccc(CNC(=O)c2ccc(C(O)(CC(C)(C)C)C(F)(F)F)cc2)cc1 (stereo not drawn) [Example 18, N-[(4-ethylsulfonylphenyl)methyl]-4-[1-hydroxy-3,3-dimethyl-1-(trifluoromethyl)butyl]benzamide] | ≤ 1
13 | CCS(=O)(=O)c1ccc(CNC(=O)c2ccc(C(O)(C(F)(F)F)C(F)(F)F)cc2)cc1 [Example 19, N-[(4-ethylsulfonylphenyl)methyl]-4-[2,2,2-trifluoro-1-hydroxy-1-(trifluoromethyl)ethyl]benzamide] | < 10
14 | CCOC(c1ccc(C(=O)NCc2ccc(S(=O)(=O)CC3CC3)cc2)cc1)(C(F)(F)F)C(F)(F)F [Example 23, N-[[4-(cyclopropylmethylsulfonyl)phenyl]methyl]-4-[1-ethoxy-2,2,2-trifluoro-1-(trifluoromethyl)ethyl]benzamide] | ≤ 0.1
15 | CCCOC(c1ccc(C(=O)NCc2ccc(S(=O)(=O)CC3CC3)cc2)cc1)(C(F)(F)F)C(F)(F)F [Example 24, N-[[4-(cyclopropylmethylsulfonyl)phenyl]methyl]-4-[2,2,2-trifluoro-1-propoxy-1-(trifluoromethyl)ethyl]benzamide] | ≤ 0.1

The remaining lines, values ahead:

Row | IC50 [µM] | SMILES
16 | ≤ 0.1 | CCC(O)(c1ccc(C(=O)NCc2ccc(S(=O)(=O)CC3CC3)cc2)cc1)C(F)(F)F (racemic) [(+)-1, (+)-N-[[4-(cyclopropylmethylsulfonyl)phenyl]methyl]-4-[1-hydroxy-1-(trifluoromethyl)propyl]benzamide]
17 | ≤ 0.1 | O=C(NCc1ccc(S(=O)(=O)CC2CC2)cc1)c1ccc(C(O)(C(F)(F)F)C(F)(F)F)cc1 [Example 4, N-[[4-(cyclopropylmethylsulfonyl)phenyl]methyl]-4-[2,2,2-trifluoro-1-hydroxy-1-(trifluoromethyl)ethyl]benzamide]
18 | ≤ 0.1 | CC(C)CC(O)(c1ccc(C(=O)NCc2ccc(S(=O)(=O)CC3CC3)cc2)cc1)C(F)(F)F (stereo not drawn) [Example 8, N-[[4-(cyclopropylmethylsulfonyl)phenyl]methyl]-4-[1-hydroxy-3-methyl-1-(trifluoromethyl)butyl]benzamide]
19 | ≤ 0.1 | CC(C)C(O)(c1ccc(C(=O)NCc2ccc(S(=O)(=O)CC3CC3)cc2)cc1)C(F)(F)F (stereo not drawn) [Example 10, N-[[4-(cyclopropylmethylsulfonyl)phenyl]methyl]-4-[1-hydroxy-2-methyl-1-(trifluoromethyl)propyl]benzamide]
20 | ≤ 0.1 | O=C(NCc1ccc(S(=O)(=O)CC2CC2)cc1)c1ccc(C(O)(C2CC2)C(F)(F)F)cc1 (stereo not drawn) [Example 11, N-[[4-(cyclopropylmethylsulfonyl)phenyl]methyl]-4-(1-cyclopropyl-2,2,2-trifluoro-1-hydroxy-ethyl)benzamide]
21 | < 10 | CCC(O)(c1ccc(C(=O)NCc2ccc(S(=O)(=O)CC)cc2)cc1)C(F)(F)F (stereo not drawn) [Example 17, N-[(4-ethylsulfonylphenyl)methyl]-4-[1-hydroxy-1-(trifluoromethyl)propyl]benzamide]
22 | ≤ 1 | CCCCC(O)(c1ccc(C(=O)NCc2ccc(S(=O)(=O)NC3CC3)cc2)cc1)C(F)(F)F (stereo not drawn) [Example 20, N-[[4-(cyclopropylsulfamoyl)phenyl]methyl]-4-[1-hydroxy-1-(trifluoromethyl)pentyl]benzamide]
23 | ≤ 1 | O=C(NCc1ccc(S(=O)(=O)NC2CC2)cc1)c1ccc(C(O)(C(F)(F)F)C(F)(F)F)cc1 [Example 21, N-[[4-(cyclopropylsulfamoyl)phenyl]methyl]-4-[2,2,2-trifluoro-1-hydroxy-1-(trifluoromethyl)ethyl]benzamide]
24 | ≤ 0.1 | COC(c1ccc(C(=O)NCc2ccc(S(=O)(=O)CC3CC3)cc2)cc1)(C(F)(F)F)C(F)(F)F [Example 22, N-[[4-(cyclopropylmethylsulfonyl)phenyl]methyl]-4-[2,2,2-trifluoro-1-methoxy-1-(trifluoromethyl)ethyl]benzamide]

From US10556866B2, “ROR gamma (RORγ) modulators” (LEAD PHARMA HOLDING B.V., priority 2015, dated 2020)
